Measured values: patent publication US9145415B2, “Nitrogen-containing heterocyclic compound or salt thereof” (FUJIFILM Corporation, priority 2012, dated 2015)
Read-outs that look alike come from different tables or passages of the source.

How the values were obtained:
[1] = target: T1, human FLT3 protein (FLT3 (WT)) (Homo sapiens, UniProt P36888); assay: FLT3 inhibition test (FLT3 enzyme inhibition, time-resolved fluorescence of substrate peptide phosphorylation); assay type: biochemical; settings: read-out: FLT3 (WT) enzyme inhibition activity
T1 construct: human FLT3 protein (intracellular region, 564 to 993 aa); GST; purchased Carna Biosciences; host or cells: baculovirus expression system
T1 sequence (P36888 564-993): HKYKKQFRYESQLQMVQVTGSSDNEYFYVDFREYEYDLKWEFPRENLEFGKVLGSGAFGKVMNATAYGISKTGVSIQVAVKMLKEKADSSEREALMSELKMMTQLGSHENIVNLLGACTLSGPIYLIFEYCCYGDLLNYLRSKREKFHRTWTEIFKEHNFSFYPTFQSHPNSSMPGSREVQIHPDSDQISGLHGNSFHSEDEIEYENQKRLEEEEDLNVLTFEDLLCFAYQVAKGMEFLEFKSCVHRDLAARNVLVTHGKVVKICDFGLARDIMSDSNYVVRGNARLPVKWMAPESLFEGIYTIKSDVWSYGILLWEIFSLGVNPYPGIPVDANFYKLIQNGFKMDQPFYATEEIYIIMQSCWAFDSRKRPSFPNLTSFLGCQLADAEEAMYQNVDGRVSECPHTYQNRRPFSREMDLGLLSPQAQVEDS
Outline: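 Substrate peptide phosphorylation detected by time-resolved fluorescence after a 30 min kinase reaction at 25° C with 50 μM ATP (final). Beforehand, compound and FLT3 (WT, 1.2 μg) stood 15 min at 25° C in HEPES buffer pH 7.5 containing MgCl2, NaCl, BSA and DTT.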

Molm-13 cells = assay: Leukemia cell proliferation inhibition test (ATPlite), Molm-13; assay type: cell-based; settings: read-out: MOLM13 cell proliferation inhibition effect
Outline: (§1)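 Molm-13 or MV4-11 cells in RPMI with 10% FBS and pen/strep, seeded at 10,000 cells per well, were exposed to serially diluted compound for 72 hours at 37° C, 5% CO2. Total cellular ATP was read by luciferase luminescence. GI50 came from sigmoid fits against the 0.1% DMSO control, in duplicate.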

MV4-11 cells = assay: Leukemia cell proliferation inhibition test (ATPlite), MV4-11; assay type: cell-based; settings: read-out: MV4-11 cell proliferation inhibition effect
Outline: as §1

[2] = Homo sapiens, MOLM-13, MOLM13 cell
[3] = Homo sapiens, MV4-11, MV4-11 cell
[4] = GST-fused human FLT3 (564 to 993 aa), ATP 50 μM
[5] = Homo sapiens, MOLM-13, 72 h, Molm-13, 72 hours culture, ATPlite, GI50 per method
[6] = Homo sapiens, MV4-11, 72 h, MV4-11, 72 hours culture, ATPlite, GI50 per method

Row | SMILES | IC50 ([1]; FLT3 (WT)) [nM] | IC50 (Molm-13 cells; [2]) [nM] | IC50 (MV4-11 cells; [3]) [nM] | IC50 [1, 4] [nM] | IC50 (Molm-13 cells; [5]) [nM] | IC50 (MV4-11 cells; [6]) [nM] | IC50 (Molm-13 cells; Molm-13, 72 hours culture, ATPlite, GI50 per method) [nM] | IC50 (MV4-11 cells; MV4-11, 72 hours culture, ATPlite, GI50 per method) [nM]
1 | C=CC(=O)NCC(=O)Nc1cccc(CNC(=O)c2cnc(NCCc3ccncc3)nc2NCCC)c1 [Compound 2-27] |  |  |  | 10 to 100 | 100 to 1000 | 100 to 1000 |  | 
2 | CCCNc1nc(Nc2ccc(C#N)cc2)ncc1C#C[C@@H]1CCC[C@H](NC(=O)[C@H](C)N(C)C(=O)/C=C/CN(C)C)C1 [Compound 13-4] |  |  |  | < 10 | < 10 | < 10 |  | 
3 | CCCNc1nc(Nc2ccc(C(N)=O)cc2)ncc1C#Cc1cccc(NC(=O)[C@H](C)N(C)C(=O)/C=C/CN(C)C)c1 [Compound 8-14] |  |  |  | < 10 |  |  | 10 to 100 | < 10
4 | CCCN(CCC)c1nc(Nc2ccc(F)cc2)ncc1C#CCCCNC(=O)CN(C)C(=O)/C=C/CN(C)C [Compound 10-22] |  |  |  | < 10 | < 10 | < 10 |  | 
5 | C/C=C/C(=O)N(C)[C@@H](C)C(=O)Nc1cccc(NC(=O)c2cnc(Nc3ccc(C(N)=O)cc3)nc2NCCC)c1 [Compound 3-9] |  |  |  | < 10 | 10 to 100 | 10 to 100 |  | 
6 | CNc1nc(Nc2ccc(C#N)cc2)ncc1C#CCCCNC(=O)[C@H](C)N(C)C(=O)/C=C/CN(C)C [Compound 10-45] |  |  |  | < 10 | < 10 | < 10 |  | 
7 | C[C@@H](C(=O)Nc1cccc(C#Cc2cnc(Nc3ccc(C#N)cc3)nc2NC2CC2)n1)N(C)C(=O)/C=C/CN(C)C [Compound 8-18] |  |  |  | < 10 | 10 to 100 | 10 to 100 |  | 
8 | CCCNc1nc(Nc2ccc(C(N)=O)cc2)ncc1C#Cc1cccc(NCCNC(=O)/C=C/CN(C)C)c1 [Compound 8-5] |  |  |  | < 10 | 10 to 100 | 10 to 100 |  | 
9 | C[C@@H](C(=O)NCCCC#Cc1cnc(Nc2ccnc(F)c2)nc1NC1CC1)N(C)C(=O)/C=C/CN(C)C [Compound 9-15, (S,E)-N-(1-((5-(4-(Cyclopropylamino)-2-((2-fluoropyridin-4-yl)amino)pyrimidin-5-yl)-4-pentyn-1-yl)amino)-1-oxopropan-2-yl)-4-(dimethylamino)-N-methyl-2-butenamide] |  |  |  | < 10 | < 10 | < 10 |  | 
10 | CCCNc1nc(Nc2ccc(Cn3cncn3)cc2)ncc1C#CCCCNC(=O)CN(C)C(=O)/C=C/CN(C)C [Compound 12-11] |  |  |  | 10 to 100 | 10 to 100 | 10 to 100 |  | 
11 | CCNc1nc(Nc2ccc3cn[nH]c3c2)ncc1C#CCCCNC(=O)[C@@H]1CCCN1C(=O)/C=C/CN(C)C [Compound 10-70] |  |  |  | < 10 | < 10 | < 10 |  | 
12 | CCCNc1nc(Nc2ccc(C#N)cc2)ncc1C#CCCCNC(=O)[C@@H]1CCCCN1C(=O)/C=C/CN(C)C [Compound 7-37] |  |  |  | < 10 | < 10 | < 10 |  | 
13 | CCCNc1nc(Nc2ccc(C(N)=O)cc2)ncc1C(=O)Nc1cccc(NC(=O)[C@H](C)N(C)C(=O)/C=C/C(C)N(C)C)c1 (stereo partly drawn) [Compound 4-14] |  |  |  | < 10 | < 10 | < 10 |  | 
14 | CCCNc1nc(NC(=O)Nc2ccncc2)ncc1C(=O)Nc1cccc(NC(=O)[C@H](C)NC(=O)/C=C/CN(C)C)c1 [Compound 6-15] |  |  |  | < 10 | 100 to 1000 | 100 to 1000 |  | 
15 | C=CC(=O)NCC(=O)Nc1cccc(NC(=O)c2cnc(Nc3ccc(C#N)cc3)nc2NCCC)c1 [Compound 6-2, N-(3-(2-(acrylylamido)acetamido)phenyl)-2-((4-cyanophenyl)amino)-4-(propylamino)pyrimidine-5-carboxamide] |  |  |  | 10 to 100 | 100 to 1000 | 10 to 100 |  | 
16 | CCCNc1nc(Nc2ccc(C#N)cc2)ncc1C#CCCCNC(=O)[C@@H]1C[C@@H](O)CN1C(=O)/C=C/CN(C)C [Compound 7-68] |  |  |  | < 10 | < 10 | < 10 |  | 
17 | CCCNc1nc(Nc2ccc(C#N)cc2)ncc1C#CCCCNC(=O)[C@@H]1C[C@H](O)CN1C(=O)/C=C/CN(C)C [Compound 7-69] |  |  |  | < 10 | < 10 | < 10 |  | 
18 | CCCNc1nc(Nc2ccc(C(N)=O)cc2)ncc1C(=O)Nc1cccc(NC(=O)[C@H](C)N(C)C(=O)/C=C/CN(C)CC)c1 [Compound 4-3] |  |  |  | < 10 | < 10 | < 10 |  | 
19 | CCCNc1nc(Nc2ccc(C#N)cc2)ncc1C#CCCCNC(=O)CN(C(=O)/C=C/CN(C)C)C(C)C [Compound 7-40] |  |  |  | < 10 | < 10 | < 10 |  | 
20 | CCCNc1nc(Nc2ccnc(F)c2)ncc1C#CC(C)(C)CCNC(=O)[C@H](C)N(C)C(=O)/C=C/CN(C)C [Compound 9-19] |  |  |  | < 10 | < 10 | < 10 |  | 
21 | CCCNc1nc(Nc2ccc(C(N)=O)cc2)ncc1C#CCCCNC(=O)[C@H](C)N(C)C(=O)/C=C/CN(C)C [Compound 7-4, (S,E)-4-((5-(5-(2-(4-(Dimethylamino)-N-methyl-2-butenamido)propaneamido)-1-pentyn-1-yl)-4-(propylamino)pyrimidin-2-yl)amino)benzamide] |  |  |  | < 10 | < 10 | < 10 |  | 
22 | C[C@@H](C(=O)NCCCC#Cc1cnc(Nc2ccc(C#N)cc2)nc1N1CCC1)N(C)C(=O)/C=C/CN(C)C [Compound 10-14] |  |  |  | < 10 | < 10 | < 10 |  | 
23 | CCCNc1nc(Nc2ccnc(F)c2)ncc1C#CCCCNC(=O)[C@H](C)N(C)C(=O)/C=C/CN(C)C [Compound 9-13, (S,E)-4-(Dimethylamino)-N-(1-((5-(2-((2-fluoropyridin-4-yl)amino)-4-(propylamino)pyrimidin-5-yl)-4-pentyn-1-yl)amino)-1-oxopropan-2-yl)-N-methyl-2-butenamide] |  |  |  | < 10 | < 10 | < 10 |  | 

Other lines, results leading:

Row | IC50 ([1]; FLT3 (WT)) [nM] | IC50 (Molm-13 cells; [2]) [nM] | IC50 (MV4-11 cells; [3]) [nM] | IC50 [1, 4] [nM] | IC50 (Molm-13 cells; [5]) [nM] | IC50 (MV4-11 cells; [6]) [nM] | IC50 (Molm-13 cells; Molm-13, 72 hours culture, ATPlite, GI50 per method) [nM] | IC50 (MV4-11 cells; MV4-11, 72 hours culture, ATPlite, GI50 per method) [nM] | SMILES
24 | < 10 | < 10 | < 10 |  |  |  |  |  | CCCNc1nc(Nc2cnc3c(c2)c(OC)nn3C)ncc1C#CCCCNC(=O)[C@@H]1CCCN1C(=O)/C=C/CN(C)C [Compound 22-47]
25 | < 10 | < 10 | < 10 |  |  |  |  |  | CCCNc1nc(Nc2cnc3c(c2)c(C)nn3C)ncc1C#CCCCNC(=O)[C@@H]1CCCN1C(=O)/C=C/CN(C)C [Compound 22-45]
26 | < 10 | < 10 | < 10 |  |  |  |  |  | CNc1nc(Nc2ccc3c(F)nn(C)c3c2)ncc1C#CCCCNC(=O)[C@H](C)N(C)C(=O)/C=C/CN(C)C [Compound 21-50]
27 |  |  |  | < 10 | 10 to 100 | < 10 |  |  | CCCNc1nc(Nc2ccc3scnc3c2)ncc1C#CCCCNC(=O)[C@H](C)N(C)C(=O)/C=C/CN(C)C [Compound 21-15]
28 | < 10 | < 10 | < 10 |  |  |  |  |  | CNc1nc(Nc2ccc(C#N)cc2)ncc1C#CCCCNC(=O)[C@@H]1CCCN1C(=O)/C=C/CN(C)C [Compound 21-45]
29 | 10 to 100 | 100 to 1000 | 100 to 1000 |  |  |  |  |  | CCCNc1nc(Nc2cccc3cn[nH]c23)ncc1C#CCCCNC(=O)[C@H](C)N(C)C(=O)/C=C/CN(C)C [Compound 21-56]
30 | < 10 | < 10 | < 10 |  |  |  |  |  | CCCNc1nc(Nc2ccc3[nH]ncc3c2)ncc1C#CCCCNC(=O)[C@H](C)N(C)C(=O)/C=C/CN(C)C [Compound 21-55]
31 |  |  |  | < 10 | < 10 | < 10 |  |  | C[C@@H](C(=O)N[C@H]1C[C@@H](C#Cc2cnc(Nc3cccc(F)c3)nc2NCCCF)C1)N(C)C(=O)/C=C/CN(C)C [Compound 15-13, (E)-4-(Dimethylamino)-N—((S)-1-(((1S,3R)-3-((2-((3-fluorophenyl)amino)-4-((3-fluoropropyl)amino)pyrimidin-5-yl)ethynyl)cyclobutyl)amino)-1-oxopropan-2-yl)-N-methyl-2-butenamide]
32 | < 10 | 10 to 100 | 10 to 100 |  |  |  |  |  | CCCNc1nc(Nc2ccc(-n3cccn3)cc2)ncc1C#CCCCNC(=O)[C@H](C)N(C)C(=O)/C=C/CN(C)C [Compound 22-15]
33 |  |  |  | < 10 | < 10 | < 10 |  |  | C[C@@H](C(=O)N[C@H]1C[C@@H](C#Cc2cnc(Nc3cccc(F)c3)nc2NC2CC2)C1)N(C)C(=O)/C=C/CN(C)C [Compound 15-7]
34 | < 10 | < 10 | < 10 |  |  |  |  |  | CC(C)Nc1nc(Nc2cccc(F)c2)ncc1C#C[C@@H]1CCC[C@H](NC(=O)[C@H](C)N(C)C(=O)/C=C/CN(C)C)C1 [Compound 21-30]
